Reference: ChEMBL document CHEMBL1123380, “Spin trapping of superoxide and hydroxyl radicals with substituted pyrroline 1-oxides” (J Med Chem, 1986)

Legend:
[1] = Compound was evaluated for the partition coefficient in octanol/water; type: physicochemical
[2] = Compound was evaluated for the partition coefficient in octanol/water (1-octanol / 10 mM phosphate buffer at pH 7.4); type: physicochemical

Compound	K [1]	K [2]
CCCCC(C)(CCC=O)[N+](=O)[O-] (centres undefined)	1.1	–
CC1(C)CCC=[N+]1[O-]	–	0.02
O=CCCC1([N+](=O)[O-])CCCC1	0.8	–
CCCC(CCC)(CCC=O)[N+](=O)[O-]	4.9	–
